# Marks after values point to notes of the source that are not given here.
# Key:
# Assay type in all cases: in vivo, Sprague Dawley rats
# [1] = system: ovariectomized (OVX) rats; assay: Four day dosing regimen, post-menopausal rat model: wet uterine weight; details: for Uterine Weight (% inc. OVX): OVX rats, oral, daily for 4 days
# Procedure: (§1) Animals were dosed daily for 4 days. […] A blood sample was collected by cardiac puncture.
# [2] = system: uterine eosinophil peroxidase activity; assay: Uterine eosinophil peroxidase (EPO) assay, four day dosing; details: for Uterine EPO (Vmax): OVX rats, oral, daily for 4 days
# Procedure: as §1
# [3] = system: ovariectomized (OVX) rats; assay: Serum cholesterol analysis, four day dosing; details: for inhibition in vivo at 0.1 mg/kg / inhibition in vivo at 1 mg/kg / inhibition in vivo at 10 mg/kg: Rattus norvegicus, po, 96 h, OVX rats, oral, daily for 4 days, read-out: Serum Cholesterol (% dec. OVX)
# Procedure: as §1
# Blood samples were allowed to clot at room temperature for 2 hours, and serum was obtained following centrifugation for 10 minutes at 3000 rpm. Serum cholesterol was determined using a Boehringer Mannheim Diagnostics high performance cholesterol assay. Briefly the cholesterol was oxidized to cholest-4-en-3-one and hydrogen peroxide. The hydrogen peroxide was then reacted with phenol and 4-aminophenazone in the presence of peroxidase to produce a p-quinone imine dye, which was read spectrophotemetrically at 500 nm. Cholesterol concentration was then calculated against a standard curve. The entire assay was automated using a Biomek Automated Workstation.
# [4] = system: ovariectomized (OVX) rats; assay: Thirty-five day dosing regimen: bone density assay (tibia, single photon absorptiometry); details: oral in 20% hydroxypropyl β-cyclodextrin, daily for 35 days
# Procedure: Following the General Preparation procedure described above, the rats were treated daily for 35 days (6 rats per treatment group) and sacrificed by decapitation on the 36th day. The 35 day time period was sufficient to allow maximal effect on bone density, measured as described herein. At the time of sacrifice, the uteri were removed, dissected free of extraneous tissue, and the fluid contents were expelled before determination of wet weight in order to confirm estrogen deficiency associated with complete ovariectomy. […] The uteri were then placed in 10% neutral buffered formalin to allow for subsequent histological analysis. The right tibias were excised and scanned at the distal metaphysis 1 mm from the patellar groove with single photon absorptiometry. Results of the densitometer measurements represent a calculation of bone density as a function of the bone mineral content and bone width. In accordance with the procedures outlined above, compounds of the present invention and EE2 in 20% hydroxypropyl β-cyclodextrin were orally administered to test animals.
structure (smiles),measurement,setting,value
CCCCN(C)C(=O)COc1ccc(C(=O)c2c(-c3ccc(O)cc3)sc3cc(O)ccc23)cc1 [Compound 10],Uterine Weight (% inc. OVX),[1]; dose 0.1 mg/kg,1.5 % inc. OVX
same,Uterine Weight (% inc. OVX),[1]; dose 1 mg/kg,−6.7 % inc. OVX
same,Uterine Weight (% inc. OVX),[1]; dose 10 mg/kg,38.0* % inc. OVX
same,Uterine EPO (Vmax),[2]; dose 0.1 mg/kg,4.3 Vmax
same,Uterine EPO (Vmax),[2]; dose 1 mg/kg,3.1 Vmax
same,Uterine EPO (Vmax),[2]; dose 10 mg/kg,17.0 Vmax
O=C(c1ccc(OCCNC(=O)C2CCCCC2)cc1)c1c(-c2ccc(O)cc2)sc2cc(O)ccc12 [Compound 21],Uterine Weight (% inc. OVX),[1]; dose 0.1 mg/kg,−5.5 % inc. OVX
same,Uterine Weight (% inc. OVX),[1]; dose 1 mg/kg,−11.5 % inc. OVX
same,Uterine Weight (% inc. OVX),[1]; dose 10 mg/kg,8.6 % inc. OVX
same,inhibition in vivo at 0.1 mg/kg,[3],9.3%
same,inhibition in vivo at 1 mg/kg,[3],0.5%
same,inhibition in vivo at 10 mg/kg,[3],24%
same,Uterine EPO (Vmax),[2]; dose 0.1 mg/kg,3.1 Vmax
same,Uterine EPO (Vmax),[2]; dose 1 mg/kg,2.6 Vmax
same,Uterine EPO (Vmax),[2]; dose 10 mg/kg,2.4 Vmax
CC(C#N)Oc1ccc(C(=O)c2c(-c3ccc(O)cc3)sc3cc(O)ccc23)cc1 (stereo not drawn) [Compound 16],Uterine Weight (% inc. OVX),[1]; dose 0.1 mg/kg,0.7 % inc. OVX
same,Uterine Weight (% inc. OVX),[1]; dose 1 mg/kg,27.4 % inc. OVX
same,Uterine Weight (% inc. OVX),[1]; dose 10 mg/kg,99.2* % inc. OVX
same,inhibition in vivo at 0.1 mg/kg,[3],3.4%
same,inhibition in vivo at 1 mg/kg,[3],28.8%
same,inhibition in vivo at 10 mg/kg,[3],71.2%
same,Uterine EPO (Vmax),[2]; dose 0.1 mg/kg,2.3 Vmax
same,Uterine EPO (Vmax),[2]; dose 1 mg/kg,3.9 Vmax
same,Uterine EPO (Vmax),[2]; dose 10 mg/kg,23.4 Vmax
"C#C[C@]1(O)CC[C@H]2[C@@H]3CCc4cc(O)ccc4[C@H]3CC[C@@]21C [ethynyl estradiol, 17α-Ethynyl estradiol, reference compound]",effect on uterine weight compared to ovariectomized animals (in words),[1]; EE2 orally at 0.1 mg/Kg/day,substantially greater
same,Uterine Weight (% inc. OVX),[1]; dose 0.1 mg/kg,235.2* % inc. OVX
same,tibia density / bone loss after ovariectomy (in words),[4],prevented this loss
same,effect on serum cholesterol compared to ovariectomized control animals (in words),[3]; EE2 orally at 0.1 mg/Kg/day,decrease in serum cholesterol
same,Uterine EPO (Vmax),[2]; dose 0.1 mg/kg,120.0* Vmax
same,"eosinophil infiltration into the uterus, by eosinophil peroxidase activity (in words)",[2]; ovariectomized rats,"substantial, expected increase"
CC(C)(C)C(=O)N1CCCCC1COc1ccc(C(=O)c2c(-c3ccc(O)cc3)sc3cc(O)ccc23)cc1 (stereo not drawn) [Compound 22],Uterine Weight (% inc. OVX),[1]; dose 0.1 mg/kg,1.9 % inc. OVX
same,Uterine Weight (% inc. OVX),[1]; dose 1 mg/kg,19.6 % inc. OVX
same,Uterine Weight (% inc. OVX),[1]; dose 10 mg/kg,46.9* % inc. OVX
same,inhibition in vivo at 0.1 mg/kg,[3],22.1%
same,inhibition in vivo at 1 mg/kg,[3],36.2%
same,inhibition in vivo at 10 mg/kg,[3],71.5%
same,Uterine EPO (Vmax),[2]; dose 0.1 mg/kg,3.5 Vmax
same,Uterine EPO (Vmax),[2]; dose 1 mg/kg,20.0 Vmax
same,Uterine EPO (Vmax),[2]; dose 10 mg/kg,69.5* Vmax
CC(=O)NCCOc1ccc(C(=O)c2c(-c3ccc(O)cc3)sc3cc(O)ccc23)cc1 [Compound 26],Uterine Weight (% inc. OVX),[1]; dose 0.1 mg/kg,−17.5 % inc. OVX
same,Uterine Weight (% inc. OVX),[1]; dose 1 mg/kg,−28.8* % inc. OVX
same,Uterine Weight (% inc. OVX),[1]; dose 10 mg/kg,25.8* % inc. OVX
same,inhibition in vivo at 1 mg/kg,[3],19%
same,inhibition in vivo at 10 mg/kg,[3],32.8%
same,Uterine EPO (Vmax),[2]; dose 0.1 mg/kg,1.3 Vmax
same,Uterine EPO (Vmax),[2]; dose 1 mg/kg,0.7 Vmax
same,Uterine EPO (Vmax),[2]; dose 10 mg/kg,13.6 Vmax
CC(C)(C)C(=O)N1CCC(Oc2ccc(C(=O)c3c(-c4ccc(O)cc4)sc4cc(O)ccc34)cc2)CC1 [Compound 23],Uterine Weight (% inc. OVX),[1]; dose 0.1 mg/kg,−4.3 % inc. OVX
same,Uterine Weight (% inc. OVX),[1]; dose 1 mg/kg,0.8 % inc. OVX
same,Uterine Weight (% inc. OVX),[1]; dose 10 mg/kg,22.3 % inc. OVX
same,inhibition in vivo at 10 mg/kg,[3],55.8%
same,Uterine EPO (Vmax),[2]; dose 0.1 mg/kg,1.6 Vmax
same,Uterine EPO (Vmax),[2]; dose 1 mg/kg,3.8 Vmax
same,Uterine EPO (Vmax),[2]; dose 10 mg/kg,6.7 Vmax
O=C(NCCOc1ccc(C(=O)c2c(-c3ccc(O)cc3)sc3cc(O)ccc23)cc1)c1ccccc1 [Compound 18],Uterine Weight (% inc. OVX),[1]; dose 0.1 mg/kg,16.1 % inc. OVX
same,Uterine Weight (% inc. OVX),[1]; dose 1 mg/kg,25.7 % inc. OVX
same,Uterine Weight (% inc. OVX),[1]; dose 10 mg/kg,12.6 % inc. OVX
same,inhibition in vivo at 0.1 mg/kg,[3],-10.8%
same,inhibition in vivo at 1 mg/kg,[3],-12.2%
same,inhibition in vivo at 10 mg/kg,[3],12.8%
same,Uterine EPO (Vmax),[2]; dose 0.1 mg/kg,3.2 Vmax
same,Uterine EPO (Vmax),[2]; dose 1 mg/kg,3.6 Vmax
same,Uterine EPO (Vmax),[2]; dose 10 mg/kg,3.6 Vmax
O=C(c1ccc(OCCN2C(=O)CCC2=O)cc1)c1c(-c2ccc(O)cc2)sc2cc(O)ccc12 [Compound 13],Uterine Weight (% inc. OVX),[1]; dose 0.1 mg/kg,22.2 % inc. OVX
same,Uterine Weight (% inc. OVX),[1]; dose 1 mg/kg,7.2 % inc. OVX
same,Uterine Weight (% inc. OVX),[1]; dose 10 mg/kg,−4.0 % inc. OVX
same,Uterine EPO (Vmax),[2]; dose 0.1 mg/kg,1.9 Vmax
same,Uterine EPO (Vmax),[2]; dose 1 mg/kg,1.7 Vmax
same,Uterine EPO (Vmax),[2]; dose 10 mg/kg,2.5 Vmax
